The record followed here is US11377441B2, “Covalent inhibitors of KRAS” (Araxes Pharma LLC, priority 2017, dated 2022).

Structures are written as SMILES.

The target in this test is T1, KRAS G12C 1-169, his-tagged protein, GDP-loaded (Homo sapiens, UniProt P01116, G12C).
T1 construct: KRAS G12C 1-169, his-tagged protein, GDP-loaded
Nature of the test: Biochemical assay: covalent modification of KRAS G12C measured by mass spectrometry (RapidFire/TOF or Q-Exactive). It counts as binding. The settings on record: covalent binding to (modification of) KRAS G12C after a ten minute incubation period. A digest of the protocol: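 GDP-loaded KRAS G12C 1-169 (his-tagged) at 2 μM or 0.5 μM in 20 mM Hepes, 150 mM NaCl, 1 mM MgCl2, incubated with compound at 100, 30 or 10 μM at room temperature for 10 min, 30 min, 2 h or 24 h, then quenched with formic acid. Intact-protein LC-MS, deconvolved; percent modification from modified versus unmodified protein.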
`C=CC(=O)N1C[C@H](C)N(c2nc(OCCN3CC[C@@H](F)C3)nc3c(F)c(-c4c(C)ccc5[nH]nc(N)c45)c(Cl)cc23)C[C@H]1C` [Compound 108, 1-((2R,5S)-4-(7-(3-amino-5-methyl-1H-indazol-4-yl)-6-chloro-8-fluoro-2-(2-((R)-3-fluoropyrrolidin-1-yl)ethoxy)quinazolin-4-yl)-2,5-dimethylpiperazin-1-yl)prop-2-en-1-one]: the Binding % result is listed as “+++ (+++ indicates binding activity greater than 80%)”.

On to `C=CC(=O)N1CCN(c2nc(N3CC(N(C)C)C3)nc3c(F)c(-c4c(C)ccc5[nH]ncc45)c(Cl)cc23)CC1CC#N` (stereo not shown) [Compound 267, 2-(1-acryloyl-4-(6-chloro-2-(3-(dimethyalmino)azetidin-1-yl)-8-fluoro-7-(5-methyl-1H-indazol-4-yl)quinazolin-4-yl)piperazin-2-yl)acetonitrile], for which the Binding % result is on record as “+++ (+++ indicates binding activity greater than 80%)”.

Turning to `C=CC(=O)N1C[C@H](C)N(c2nc(OCCN3CC(F)(F)C3)nc3c(F)c(-c4c(C)ccc5[nH]nc(N)c45)c(Cl)cc23)C[C@H]1C` (atropisomer, axis not shown) [Compound 84, 1-((2R,5S)-4-((R)-7-(3-amino-5-methyl-1H-indazol-4-yl)-6-chloro-2-(2-(3,3-difluoroazetidin-1-yl)ethoxy)-8-fluoroquinazolin-4-yl)-2,5-dimethylpiperazin-1-yl)prop-2-en-1-one], the Binding % result was “+++ (+++ indicates binding activity greater than 80%)”. The result for `C=CC(=O)N1C[C@H](C)N(c2nc(NCCCN3CCOCC3)nc3c(F)c(-c4c(C)ccc5[nH]nc(N)c45)c(Cl)cc23)C[C@H]1C` [Compound 72, 1-((2R,5S)-4-(7-(3-amino-5-methyl-1H-indazol-4-yl)-6-chloro-8-fluoro-2-(3-morpholinopropylami-no)quinazolin-4-yl)-2,5-dimethylpiperazin-1-yl)prop-2-en-1-one] reads “+++ (+++ indicates binding activity greater than 80%)”. Turning to `C=CC(=O)N1C[C@H](C)N(c2nc(OC[C@@H]3COCCN3C)nc3c(F)c(-c4c(C)ccc5[nH]nc(C6CC6)c45)c(Cl)cc23)C[C@H]1C` [Compound 183, 1-((2R,5S)-4-(6-chloro-7-(3-cyclopropyl-5-methyl-1H-indazol-4-yl)-8-fluoro-2-(((S)-4-methylmorpholin-3-yl)methoxy)quinazolin-4-yl)-2,5-dimethylpiperazin-1-yl)prop-2-en-1-one], the Binding % result was “+++ (+++ indicates binding activity greater than 80%)”. Under `C=CC(=O)N1C[C@H](C)N(c2nc(N3CC(N(C)C)C3)nc3c(F)c(-c4c(C)ccc5c(O)n[nH]c45)c(Cl)cc23)C[C@H]1C` [Compound 65, 1-((2R,5S)-4-(6-chloro-2-(3-(dimethylamino)azetidin-1-yl)-8-fluoro-7-(3-hydroxy-6-methyl-1H-indazol-7-yl)quinazolin-4-yl)-2,5-dimethylpiperazin-1-yl)prop-2-en-1-one] stands “+ (+ indicates binding activity greater than 0% and up to 50%)”; under `C=CC(=O)N1C[C@H](C)N(c2nc(N3CC(NC)C3)nc3c(F)c(-c4c(C)ccc5cnn(C6CC6)c45)c(Cl)cc23)C[C@H]1C` [Compound 148, 1-((2R,5S)-4-(6-chloro-7-(1-cyclopropyl-6-methyl-1H-indazol-7-yl)-8-fluoro-2-(3-(methylamino)azetidin-1-yl)quinazolin-4-yl)-2,5-dimethylpiperazin-1-yl)prop-2-en-1-one], “+++ (+++ indicates binding activity greater than 80%)”; under `C=CC(=O)N1C[C@H](C)N(c2nc(C#CCOC)nc3c(F)c(-c4c(C)ccc5cnn(C)c45)c(Cl)cc23)C[C@H]1C` [Compound 258, 1-((2R,5S)-4-(6-chloro-7-(1,6-dimethyl-1H-indazol-7-yl)-8-fluoro-2-(3-methoxyprop-1-ynyl)quinazolin-4-yl)-2,5-dimethylpiperazin-1-yl)prop-2-en-1-one], “+++ (+++ indicates binding activity greater than 80%)”. Under `C=CC(=O)N1CCN(c2nc(N3CC(N(C)C)C3)nc3c(F)c(-c4c(C)ccc5cnn(C)c45)c(Cl)cc23)C[C@H]1C` (atropisomer, axis not shown) [Compound 144, 1-((R)-4-((R)-6-chloro-7-(1,6-dimethyl-1H-indazol-7-yl)-2-(3-(dimethylamino)azetidin-1-yl)-8-fluoroquinazolin-4-yl)-2-methylpiperazin-1-yl)prop-2-en-1-one] stands “+++ (+++ indicates binding activity greater than 80%)”.

Turning to `C=CC(=O)N1C[C@H](C)N(c2nc(OCCN3CCC(F)CC3)nc3c(F)c(-c4c(C)ccc5[nH]nc(C)c45)c(Cl)cc23)C[C@H]1C` [Compound 163, 1-((2R,5S)-4-((S)-6-chloro-7-(3,5-dimethyl-1H-indazol-4-yl)-8-fluoro-2-(2-(4-fluoropiperidin-1-yl)ethoxy)quinazolin-4-yl)-2,5-dimethylpiperazin-1-yl)prop-2-en-1-one], the Binding % entry is “+ (+ indicates binding activity greater than 0% and up to 50%)”. Under `C=CC(=O)N1C[C@H](C)N(c2nc(NCCCN(C)C)nc3c(F)c(-c4c(C)ccc5onc(N)c45)c(Cl)cc23)C[C@H]1C` [Compound 73, 1-((2R,5S)-4-(7-(3-amino-5-methylbenzo[d]isoxa-zol-4-yl)-6-chloro-2-(3-(dimethylamino)propyl-amino)-8-fluoroquinazolin-4-yl)-2,5-dimethylpiperazin-1-yl)prop-2-en-1-one] stands “+ (+ indicates binding activity greater than 0% and up to 50%)”.

Regarding `C=CC(=O)N1C[C@H](C)N(c2nc(N3CC(N(C)C)C3)nc3c(F)c(-c4c(C)ccc5cnn(C6CC6)c45)c(Cl)cc23)C[C@H]1C` [Compound 128, 1-((2R,5S)-4-(6-chloro-7-(1-cyclopropyl-6-methyl-1H-indazol-7-yl)-2-(3-(dimethylamino)azetidin-1-yl)-8-fluoroquinazolin-4-yl)-2,5-dimethylpiperazin-1-yl)prop-2-en-1-one], the Binding % entry is “+++ (+++ indicates binding activity greater than 80%)”.

Regarding `C=CC(=O)N1CCN(c2nc(N3CC(N(C)C)C3)nc3c(F)c(-c4c(C)ccc5[nH]nc(C6CC6)c45)c(Cl)cc23)C[C@H]1C` (atropisomer, axis not shown) [Compound 102, 1-((R)-4-((R)-6-chloro-7-(3-cyclopropyl-5-methyl-1H-indazol-4-yl)-2-(3-(dimethylamino)azetidin-1-yl)-8-fluoroquinazolin-4-yl)-2-methylpiperazin-1-yl)prop-2-en-1-one], the Binding % result is “+++ (+++ indicates binding activity greater than 80%)”. On to `C=CC(=O)N1C[C@H](C)N(c2nc(OC[C@@H]3C[C@H](OC)CN3C)nc3c(F)c(-c4c(C)ccc5cnn(C6CC6)c45)c(Cl)cc23)C[C@H]1C` [Compound 199, 1-((2R,5S)-4-(6-chloro-7-(1-cyclopropyl-6-methyl-1H-indazol-7-yl)-8-fluoro-2-(((2S,4S)-4-methoxy-1-methylpyrrolidin-2-yl)methoxy)quinazolin-4-yl)-2,5-dimethylpiperazin-1-yl)prop-2-en-1-one], for which the Binding % result was “+++ (+++ indicates binding activity greater than 80%)”.

As for `C=CC(=O)N1C[C@H](C)N(c2nc(N3CC(N(C)C)C3)nc3c(F)c(-c4c(C)ccc5[nH]nc(C6CC6)c45)c(Cl)cc23)C[C@H]1C` [Compound 57, 1-((2R,5S)-4-(6-chloro-7-(3-cyclopropyl-5-methyl-1H-indazol-4-yl)-2-(3-(dimethylamino)azetidin-1-yl)-8-fluoroquinazolin-4-yl)-2,5-dimethylpiperazin-1-yl)prop-2-en-1-one], the Binding % entry is listed as “+++ (+++ indicates binding activity greater than 80%)”.

As to `C=CC(=O)N1C2CCC1CN(c1nc(N3CC(N(C)C)C3)nc3c(F)c(-c4c(C)ccc5[nH]nc(N)c45)c(Cl)cc13)C2` [Compound 47, 1-((1R,5S)-3-(7-(3-amino-5-methyl-1H-indazol-4-yl)-6-chloro-2-(3-(dimethylamino)azetidin-1-yl)-8-fluoroquinazolin-4-yl)-3,8-diazabicyclo[3.2.1]oc-tan-8-yl)prop-2-en-1-one], the Binding % entry is “++ (++ indicates binding activity from 50 to 80%)”.

As to `C=CC(=O)N1C[C@H](C)N(c2nc(OC[C@H]3CCCN3C)nc3c(F)c(-c4c(C)ccc5cnn(C)c45)c(Cl)cc23)C[C@H]1C` (atropisomer, axis not shown) [Compound 236, 1-((2R,5S)-4-((R)-6-chloro-7-(1,6-dimethyl-1H-indazol-7-yl)-8-fluoro-2-(((R)-1-methylpyrrolidin-2-yl)methoxy)quinazolin-4-yl)-2,5-dimethylpiperazin-1-yl)prop-2-en-1-one], the Binding % entry was “+ (+ indicates binding activity greater than 0% and up to 50%)”. Turning to `C=CC(=O)N1C[C@H](C)N(c2nc(O[C@H](C)CN(C)C)nc3c(F)c(-c4c(C)ccc5[nH]nc(C)c45)c(Cl)cc23)C[C@H]1C` [Compound 232, 1-((2R,5S)-4-(6-chloro-7-(3,5-dimethyl-1H-indazol-4-yl)-2-((R)-1-(dimethylamino)propan-2-yloxy)-8-fluoroquinazolin-4-yl)-2,5-dimethylpiperazin-1-yl)prop-2-en-1-one], the Binding % entry is recorded as “++ (++ indicates binding activity from 50 to 80%)”. Under `C=CC(=O)N1CCN(c2nc(N3CC(N(C)C)C3)nc3c(F)c(-c4c(C)ccc5[nH]nc(N)c45)c(Cl)cc23)[C@@H](C)C1` [Compound 48, 1-((3S)-4-(7-(3-amino-5-methyl-1H-indazol-4-yl)-6-chloro-2-(3-(dimethylamino)azetidin-1-yl)-8-fluoroquinazolin-4-yl)-3-methylpiperazin-1-yl)prop-2-en-1-one] stands “+++ (+++ indicates binding activity greater than 80%)”.
